For one experiment, the target named is T1, Human D2R (Homo sapiens, UniProt P14416).
T1 construct: expressed in transfected cells; host or cells: CHO-D2R #S20 cell line (membranes)
Put plainly: D2R competition binding ([3H]-spiperone displacement). Conditions: radioligand displacement, mean±SEM of three experiments in duplicate; read-out: D2R binding affinity Ki. The method, then:
Human D2R competition binding experiments w ere carried out in polypropylene 96-well plates. Each well contained 10 µg of membranes from a CHO-D2R #S20 cell line (protein concentration of 3241 µg/ml), 0.4 nM [3H]-spiperone (80. 2 Ci/mmol, 1 mCi/ml, Perkin […]
The reaction mixture (250 µl/well) was incubated at 25°C for 120 min , after which 200 µL was transferred to a GF/C 96 -well plate (Millipore, Madrid, Spain) pretreated with 0. 5% of PEI and treated with binding buffer (50 mM Tris-HCl, 1 mM EDTA, 5 mM MgCl2, 5 mM KCl, 120 mM NaCl, pH=7.4). The […]
samples were filtered and washed four times with 250 µl wash buffer (50 mM Tris-HCl, 0.9% NaCl, pH=7.4) before measuring in a microplate beta scintillation counter (Microbeta Trilux, PerkinElmer, Madrid, Spain). Three independent exp eriments were carried out to calculate Ki values (n=3). […]
On the technique in general: Displacement assays read how much labelled ligand stays bound in the presence of the test substance.

The target in a further experiment is T2, D3R (Homo sapiens, UniProt P35462).
T2 construct: purchased Perkin Elmer ES-173M400UA
T2 sequence (P35462 whole entry): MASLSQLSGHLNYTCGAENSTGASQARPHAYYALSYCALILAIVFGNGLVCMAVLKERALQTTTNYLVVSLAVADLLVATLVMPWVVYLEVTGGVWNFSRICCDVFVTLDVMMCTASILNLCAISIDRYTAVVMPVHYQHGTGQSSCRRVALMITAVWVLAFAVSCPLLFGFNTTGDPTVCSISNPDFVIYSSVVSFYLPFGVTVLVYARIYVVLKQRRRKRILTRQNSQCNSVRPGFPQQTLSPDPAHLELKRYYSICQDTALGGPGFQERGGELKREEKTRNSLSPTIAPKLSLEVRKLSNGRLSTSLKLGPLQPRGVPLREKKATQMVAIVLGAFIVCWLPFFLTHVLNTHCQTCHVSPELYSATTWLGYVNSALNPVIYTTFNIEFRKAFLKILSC
Put plainly: D3R competition binding ([3H]-spiperone). Conditions: mean±SEM of two experiments in duplicate; read-out: D3R binding affinity Ki. The procedure: samples were filtered and washed four times with 250 µl wash buffer (50 mM Tris-HCl, 0.9% NaCl, pH=7.4) before measuring in a microplate beta scintillation counter (Microbeta Trilux, PerkinElmer, Madrid, Spain). Three independent exp eriments were carried out to calculate Ki values (n=3).
Human A1AR competition binding experiments were carried out in multiscreen GF/C 96 -well plates (Millipore, Madrid, Spain) pretreated with assay buffer ( 20 mM Hepes, 100 mM NaCl, 10 mM MgCl2, 2 U/ml adeno sine deamina se, pH=7.4). Each well contained 5 µg of membranes from a CHO-A1AR cell line, 1 nM [3H]-DPCPX (137 Ci/mmol, 1 mCi/Ml, Perkin Elmer NET974001MC), and the compound studied. Non-specific binding was determined in the presence of R-PIA 10 µM (Sigma P4532). The reaction mixture (200 µl/well) was incubated at 25°C for 60 min. The samples were then filtered and washed four times with 250 µl wash buffer (20 mM Hepes, 100 mM NaCl, 10 mM MgCl2, pH=7.4) before measuring in a microplate beta scintillati on counter (Microbeta Trilux, PerkinElmer, Madrid, Spain). Two independent experiments were carried out to calculate K i values (n=2).
D3R competition binding experiments were carried out in polypropylene 96 -well plate s. Each well contained 2 µg of membranes from a D3R cell line (Perkin Elmer, ES-173M400UA, protein concentration=1000 µg/ml), 1 nM [3H]-spiperone (68 Ci/mmol, 1 mCi/ml, Perkin Elmer NET1187001MC), and the compound studied. Non-specific binding was determined in the presence of 1 µ M haloperidol (Sigma H1512). The reaction mixture (250 µl/well) was incubated at 25 °C for 60 min, after which 200 µL was transferred to GF/C 96-well plates (Millipore, Madrid, Spain) pretreated with 0. […]
D4R competition binding experiments were carried out in polypropylene 96 -well plate s. […] Non-specific binding was determined in the presence of 25 µM haloperidol (Sigma H1512). […]
H1R competition binding experiments were carried out in polypropylene 96-well plates. […] Non-specific binding was determined in the presence of 10 µM triprolidine (T6764, Sigma Aldrich). […]

The target in another experiment is Human A2AAR (Homo sapiens, UniProt P29274). Put plainly: A2AAR functional assay, inhibition of NECA-elicited cAMP production in CHO-A2A cells. The class given is cell-based. Also on record: expressed in transfected cells. Conditions: mean±SEM n=3. The method, then:
Functional assays. For the human A2AAR, functional experiments measuring cAMP production were carried out in CHO-A2A cell line. The day before the assay, the cells were seeded on a 96-well culture plate (Falcon 353072). The cells were washed with wash buffer (Dulbecco’s modified eagle’s medium nutrient mixture F-12 ham (Sigma D8062), 25 mM Hepes; pH=7.4). Wash buffer was then replaced by incubation buffer (Dulbecco’s modified eagle’s medium nutrient mixture F-12 ham (Sigma D8062), 25 mM Hepes, 20 µM Rolipram, pH=7.4). The studied compounds wer e added and incubated at 37 °C for 15 min. After incubation, NECA (Sigma E2387) was added in several concentrations and incubated at 37 °C for 15 min. After incubation, the amount of cAMP was determined using the cAMP Biotrak Enzymeimmunoassay (EIA) System Kit (GE Healthcare RPN225). Data were adjusted to non-linear fitting by using Prism V2.1 (GraphPad Inc, Chicago USA). K B values were calculated from the IC50 values obtained for each compound by using the formula:
KB=I C50/(1+([NECA]/EC50 NECA)). […]

Molecules are shown by their SMILES.

As usually defined, the Ki is the equilibrium dissociation constant of an inhibitor or competing ligand from its target.

T1 sequence (P14416 whole entry): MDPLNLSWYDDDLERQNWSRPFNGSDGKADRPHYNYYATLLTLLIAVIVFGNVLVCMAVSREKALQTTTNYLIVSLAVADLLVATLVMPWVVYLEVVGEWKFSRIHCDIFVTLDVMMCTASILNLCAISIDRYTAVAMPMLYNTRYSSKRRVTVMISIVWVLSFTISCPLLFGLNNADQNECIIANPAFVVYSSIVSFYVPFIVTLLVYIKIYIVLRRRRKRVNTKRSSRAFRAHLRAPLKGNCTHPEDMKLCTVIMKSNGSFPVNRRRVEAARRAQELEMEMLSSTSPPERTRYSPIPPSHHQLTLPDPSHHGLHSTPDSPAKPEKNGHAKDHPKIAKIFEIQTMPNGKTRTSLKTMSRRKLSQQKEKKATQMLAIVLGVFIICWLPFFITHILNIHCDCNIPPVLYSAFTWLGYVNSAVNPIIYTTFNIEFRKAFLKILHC
Sequence of Human A2AAR (P29274 whole entry): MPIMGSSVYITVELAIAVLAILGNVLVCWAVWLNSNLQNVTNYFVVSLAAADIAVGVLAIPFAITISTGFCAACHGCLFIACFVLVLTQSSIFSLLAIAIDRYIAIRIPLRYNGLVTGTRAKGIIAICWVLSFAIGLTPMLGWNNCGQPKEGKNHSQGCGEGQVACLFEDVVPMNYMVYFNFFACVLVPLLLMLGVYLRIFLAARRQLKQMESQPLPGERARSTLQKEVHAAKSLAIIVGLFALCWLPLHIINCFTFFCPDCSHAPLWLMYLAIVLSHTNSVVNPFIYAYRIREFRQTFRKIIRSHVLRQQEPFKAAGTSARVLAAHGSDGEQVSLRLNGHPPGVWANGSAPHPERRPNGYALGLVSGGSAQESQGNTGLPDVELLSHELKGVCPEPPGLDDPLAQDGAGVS

Turning to `CCN(CCCCC(=O)Nc1nc2c(Br)cccc2s1)C1Cc2ccccc2C1` [Compound 22], the Ki was 340 ± 40 nM at Human D2R and 21 ± 6 nM on D3R.

As for `CCCN(CCCCC(=O)Nc1nc2c(OC)cccc2s1)C1Cc2ccccc2C1` [Compound 26], at Human A2AAR, the Kb was found to be 3600 ± 2000 nM. Also, the values for the Ki on Human D2R and on D3R were 230 ± 20 nM and 21 ± 2 nM, respectively.

With `CCCN(CCCCC(=O)Nc1nc2c(Br)cccc2s1)C1Cc2ccccc2C1` [Compound 27], the Kb on Human A2AAR was determined as 510 ± 240 nM. The Ki at Human D2R was 530 ± 180 nM.

The molecule `CCCN(CCCCC(=O)Nc1nc2c(OC)ccc(OC)c2s1)C1Cc2ccccc2C1` [Compound 30] registered a Kb on Human A2AAR of 720 ± 250 nM. In addition, the Ki on Human D2R was 370 ± 30 nM; on D3R it was 56 ± 7 nM.

These data come from article PMC8456950, “Structure‐Guided Design of G‐Protein‐Coupled Receptor Polypharmacology” (Angewandte Chemie (International Ed. in English), 2021).
